Experimental data taken from patent publication US20250320213A1, “Nitrogen-Containing Heterocyclic Compounds” (Pfizer Inc., priority 2024, published 2025).

Legend:
STAT6 = target: T1, STAT6 (Homo sapiens, UniProt P42226); test: STAT6 Reporter Luciferase Assay (IL-13 stimulated HaCaT keratinocyte NanoLuc reporter cells); assay type: cell-based; conditions: STAT6 NanoLuc luciferase reporter, IL-13 stimulated HaCaT keratinocyte cells; read-out: Reporter EC50
T1 construct: stably transfected HaCaT keratinocyte cell line, which expresses NanoLuc luciferase reporter gene under the transcriptional control of the STAT6 responsive promoter; endogenous in cells; host or cells: HaCaT keratinocyte reporter cell line (stably transfected with a NanoLuc reporter)
T1 sequence (P42226 1-847): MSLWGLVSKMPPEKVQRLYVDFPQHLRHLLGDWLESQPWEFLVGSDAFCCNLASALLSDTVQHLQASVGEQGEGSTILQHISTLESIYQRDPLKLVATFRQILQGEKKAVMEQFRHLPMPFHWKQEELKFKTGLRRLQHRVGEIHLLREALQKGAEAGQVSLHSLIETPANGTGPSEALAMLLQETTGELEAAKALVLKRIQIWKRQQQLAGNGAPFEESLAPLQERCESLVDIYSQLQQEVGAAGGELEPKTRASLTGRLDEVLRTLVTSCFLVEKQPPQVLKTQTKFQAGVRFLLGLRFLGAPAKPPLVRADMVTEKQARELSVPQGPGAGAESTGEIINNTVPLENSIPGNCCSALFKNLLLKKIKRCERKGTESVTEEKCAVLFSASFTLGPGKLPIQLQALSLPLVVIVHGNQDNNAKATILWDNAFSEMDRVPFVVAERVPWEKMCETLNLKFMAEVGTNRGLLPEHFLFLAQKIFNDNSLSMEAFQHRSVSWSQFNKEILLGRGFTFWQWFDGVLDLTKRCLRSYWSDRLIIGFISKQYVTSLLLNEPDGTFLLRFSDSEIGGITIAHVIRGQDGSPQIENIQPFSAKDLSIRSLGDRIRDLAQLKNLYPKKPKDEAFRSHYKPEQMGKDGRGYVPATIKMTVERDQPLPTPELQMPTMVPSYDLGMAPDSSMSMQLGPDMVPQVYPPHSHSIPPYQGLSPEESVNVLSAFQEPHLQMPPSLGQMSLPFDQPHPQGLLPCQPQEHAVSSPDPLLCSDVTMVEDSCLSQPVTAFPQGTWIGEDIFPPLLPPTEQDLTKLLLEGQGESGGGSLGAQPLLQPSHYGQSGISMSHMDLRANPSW
Summary of the method: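 HaCaT cells stably carrying a NanoLuc reporter driven by the STAT6-responsive IL-13Ra2 promoter were preincubated with compounds for 2 h at 37 °C in 2% FBS medium. Cells were then stimulated with 0.12 nM IL-13 for 4 h, and luminescence was read after Nano-Glo substrate. Compounds ran as 11-point 4-fold dilutions in duplicate.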

[1] = system: CCL17 secretion in peripheral human whole blood; test: Human Whole Blood (HWB) CCL17 TR-FRET Assay (IL-13 stimulated CCL17 secretion); assay type: cell-based; conditions: Homo sapiens, 48 h, inhibition of CCL17 secretion in human whole blood, 10 ng/mL IL13, 48 hours
Summary of the method: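 Heparinized peripheral human whole blood was preincubated with compound (11-point, 3-fold series, duplicate) for 2 h at 37 °C, then stimulated with IL-13 at 10 ng/mL final for 48 h at 37 °C. Secreted CCL17 in the serum was quantified by TR-FRET sandwich immunoassay (665/615 nm ratio, 16 h RT); IC50 derived.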

SMILES | EC50 (STAT6) [nM] | IC50 [1] [nM]
CC(C)n1nc(C(=O)NCc2ccc(NC(=O)N(C)C)cc2)c2c1C[C@H](C)N(c1ccc(C(=O)N(C)C)cn1)C2 [Example 139, (S)-5-(5-(dimethylcarbamoyl)pyridin-2-yl)-N-(4-(3,3-dimethylureido)benzyl)-1-isopropyl-6-methyl-4,5,6,7-tetrahydro-1H-pyrazolo[4,3-c]pyridine-3-carboxamide] | 2 | 7
CC(C)n1nc(C(=O)NCc2ccc(NC(=O)N3C[C@@H](F)[C@@H](F)C3)cc2)c2c1CCN(c1ccc(C(=O)N(C)C)cn1)C2 [Example 140, N-(4-((3R,4S)-3,4-difluoropyrrolidine-1-carboxamido)benzyl)-5-(5-(dimethylcarbamoyl)pyridin-2-yl)-1-isopropyl-4,5,6,7-tetrahydro-1H-pyrazolo[4,3-c]pyridine-3-carboxamide] | 12 | 144
CC(C)n1nc(C(=O)NCc2ccc(NC(=O)N3CC(N(C)C)C3)cc2)c2c1CCN(c1ccc(C(=O)N(C)C)cn1)C2 [Example 141, N-(4-(3-(dimethylamino)azetidine-1-carboxamido)benzyl)-5-(5-(dimethylcarbamoyl)pyridin-2-yl)-1-isopropyl-4,5,6,7-tetrahydro-1H-pyrazolo[4,3-c]pyridine-3-carboxamide] | 22 | 78
CC(C)n1nc(C(=O)NCc2ccc(NC(=O)N3C[C@@H]4CC[C@H]3CO4)cc2)c2c1CCN(c1ccc(C(=O)N(C)C)cn1)C2 [Example 142, (1S,4S)-N-(4-((5-(5-(dimethylcarbamoyl)pyridin-2-yl)-1-isopropyl-4,5,6,7-tetrahydro-1H-pyrazolo[4,3-c]pyridine-3-carboxamido)methyl)phenyl)-2-oxa-5-azabicyclo[2.2.2]octane-5-carboxamide] | 15 | 39
CC(C)n1nc(C(=O)NCc2ccc(NC(=O)N3CCCCC3)cc2)c2c1CCN(c1ccc(C(=O)N(C)C)cn1)C2 [Example 144, 5-(5-(dimethylcarbamoyl)pyridin-2-yl)-1-isopropyl-N-(4-(piperidine-1-carboxamido)benzyl)-4,5,6,7-tetrahydro-1H-pyrazolo[4,3-c]pyridine-3-carboxamide] | 7 | 292
CC(C)n1nc(C(=O)NCc2ccc(NC(=O)N(C)C)cc2)c2c1CCN(c1ccc(N3CCCS3(=O)=O)cn1)C2 [Example 146, N-(4-(3,3-dimethylureido)benzyl)-5-(5-(1,1-dioxidoisothiazolidin-2-yl)pyridin-2-yl)-1-isopropyl-4,5,6,7-tetrahydro-1H-pyrazolo[4,3-c]pyridine-3-carboxamide] | 127 | 2120
CC(=O)Nc1ccc(CNC(=O)c2nn(C(C)C)c3c2CN(c2ccc(C(=O)N(C)C)cn2)CC3)cc1 [Example 147, N-(4-acetamidobenzyl)-5-(5-(dimethylcarbamoyl)pyridin-2-yl)-1-isopropyl-4,5,6,7-tetrahydro-1H-pyrazolo[4,3-c]pyridine-3-carboxamide] | 26 | 252
CN(C)C(=O)Nc1ccc(CNC(=O)c2nn(C(C)(C)C)c3c2CN(c2ccc(C(=O)N(C)C)cn2)CC3)cc1 [Example 148, 1-(tert-butyl)-5-(5-(dimethylcarbamoyl)pyridin-2-yl)-N-(4-(3,3-dimethylureido)benzyl)-4,5,6,7-tetrahydro-1H-pyrazolo[4,3-c]pyridine-3-carboxamide] | 10 | 176
CC(C)n1nc(C(=O)NCc2ccc(NC(=O)N3CC(C)(N(C)C)C3)cc2)c2c1CCN(c1ccc(C(=O)N(C)C)cn1)C2 [Example 150, N-(4-(3-(dimethylamino)-3-methylazetidine-1-carboxamido)benzyl)-5-(5-(dimethylcarbamoyl)pyridin-2-yl)-1-isopropyl-4,5,6,7-tetrahydro-1H-pyrazolo[4,3-c]pyridine-3-carboxamide] | 18 | 70
CC(C)n1nc(C(=O)NCc2ccc(NC(=O)N3CCC4(COC4)C3)cc2)c2c1CCN(c1ccc(C(=O)N(C)C)cn1)C2 [Example 152, N-(4-((5-(5-(dimethylcarbamoyl)pyridin-2-yl)-1-isopropyl-4,5,6,7-tetrahydro-1H-pyrazolo[4,3-c]pyridine-3-carboxamido)methyl)phenyl)-2-oxa-6-azaspiro[3.4]octane-6-carboxamide] | 31 | 155

Results, then the compound that gave them:

EC50 (STAT6) [nM] | IC50 [1] [nM] | SMILES
11 | 108 | CC(C)n1nc(C(=O)NCc2ccc(NC(=O)N3CC[C@H](F)C3)cc2)c2c1CCN(c1ccc(C(=O)N(C)C)cn1)C2 [Example 153, (S)-5-(5-(dimethylcarbamoyl)pyridin-2-yl)-N-(4-(3-fluoropyrrolidine-1-carboxamido)benzyl)-1-isopropyl-4,5,6,7-tetrahydro-1H-pyrazolo[4,3-c]pyridine-3-carboxamide]
8 | 449 | CC(C)n1nc(C(=O)NCc2ccc(NC(=O)NCC3CC3)cc2)c2c1CCN(c1ccc(C(=O)N(C)C)cn1)C2 [Example 154, N-(4-(3-(cyclopropylmethyl)ureido)benzyl)-5-(5-(dimethylcarbamoyl)pyridin-2-yl)-1-isopropyl-4,5,6,7-tetrahydro-1H-pyrazolo[4,3-c]pyridine-3-carboxamide]
6 | 58 | CC(C)n1nc(C(=O)NCc2ccc(NC(=O)N3CCC4(CC3)COC4)cc2)c2c1CCN(c1ccc(C(=O)N(C)C)cn1)C2 [Example 156, N-(4-((5-(5-(dimethylcarbamoyl)pyridin-2-yl)-1-isopropyl-4,5,6,7-tetrahydro-1H-pyrazolo[4,3-c]pyridine-3-carboxamido)methyl)phenyl)-2-oxa-7-azaspiro[3.5]nonane-7-carboxamide]
8 | 535 | CC(C)n1nc(C(=O)NCc2ccc(NC(=O)NC3CCC3)cc2)c2c1CCN(c1ccc(C(=O)N(C)C)cn1)C2 [Example 157, N-(4-(3-cyclobutylureido)benzyl)-5-(5-(dimethylcarbamoyl)pyridin-2-yl)-1-isopropyl-4,5,6,7-tetrahydro-1H-pyrazolo[4,3-c]pyridine-3-carboxamide]
15 | 130 | CC(C)n1nc(C(=O)NCc2ccc(NC(=O)N3CC(C#N)C3)cc2)c2c1CCN(c1ccc(C(=O)N(C)C)cn1)C2 [Example 158, N-(4-(3-cyanoazetidine-1-carboxamido)benzyl)-5-(5-(dimethylcarbamoyl)pyridin-2-yl)-1-isopropyl-4,5,6,7-tetrahydro-1H-pyrazolo[4,3-c]pyridine-3-carboxamide]
16 | 59 | CC(C)n1nc(C(=O)NCc2ccc(NC(=O)N3CCO[C@H](CO)C3)cc2)c2c1CCN(c1ccc(C(=O)N(C)C)cn1)C2 [Example 159, (S)-N-(4-((5-(5-(dimethylcarbamoyl)pyridin-2-yl)-1-isopropyl-4,5,6,7-tetrahydro-1H-pyrazolo[4,3-c]pyridine-3-carboxamido)methyl)phenyl)-2-(hydroxymethyl)morpholine-4-carboxamide]
7 | 199 | CC(C)n1nc(C(=O)NCc2ccc(NC(=O)N3CCC(C(F)F)CC3)cc2)c2c1CCN(c1ccc(C(=O)N(C)C)cn1)C2 [Example 161, N-(4-(4-(difluoromethyl)piperidine-1-carboxamido)benzyl)-5-(5-(dimethylcarbamoyl)pyridin-2-yl)-1-isopropyl-4,5,6,7-tetrahydro-1H-pyrazolo[4,3-c]pyridine-3-carboxamide]
